Measurements as given in patent publication US20240254089A1, “MODULATORS OF MAS-RELATED G-PROTEIN RECEPTOR X4 AND RELATED PRODUCTS AND METHODS” (ESCIENT PHARMACEUTICALS, INC., priority 2020, published 2024).

molecular target: T1, human MRGPR X4 (Homo sapiens, UniProt Q96LA9); test: MRGPR X4 antagonist activity, IP-One Gq HTRF assay in stably transfected HEK cells; assay type: cell-based; settings: not given
T1 construct: expressed in transfected cells
Experimental: HEK cells stably transfected to express human MIRGPR X4 were maintained in an incubator at 37° C. with 5% CO2 and grown in DMEM media with 10% fetal bovine serum (FBS) and […] each of sodium pyruvate, Glutamax, penicillin/streptomycin, and Geneticin. HEK cells stably transfected to express mouse MRGPR A1 were maintained in the same incubator and grown in DMEM media with 10% FBS, 1% each of sodium pyruvate, Glutamax, penicillin/streptomycin, Geneticin, and 2.2 mg/mL Hygromycin.
Cells were plated in a 384-well assay plate at 20,000 cells per well in 12 μL of Opti-MEM and kept in an incubator overnight. On the day of the assay, compounds solubilized at 10 mM in DMSO were added as a 10-point curve (10 uM final top concentration with 1:3 serial dilutions) using a Tecan D300E digital dispenser. Agonists were diluted in assay buffer (final concentrations of 5.7 mM Tris-HCl, 43 mM NaCl, 50 mM LiCl, pH=8) and 2 μL of the appropriate agonist are added to each well. Final concentrations of agonists were 10 μM bilirubin, 20 μM deoxycholic acid, or 100 μM conjugated bilirubin (obtained from Lee Biosolutions, catalog #910-12). Final concentrations of DMSO were kept consistent across the plate. Plates were incubated in the dark for 1 h at 37° C. and then for 30 minutes at room temperature. IP-1 standards and HTRF detection reagents were added according to the IP-One—Gq Kit purchased from Cisbio (part number 62IPAPEJ) and incubated in the dark for 1 h at room temperature. The plate was read on a Molecular Devices SpectraMax iD5 plate reader. The HTRF ratio was calculated from the raw data and graphed using GraphPad Prism to calculate an IC50 value for each compound.

T1 sequence (Q96LA9 whole entry): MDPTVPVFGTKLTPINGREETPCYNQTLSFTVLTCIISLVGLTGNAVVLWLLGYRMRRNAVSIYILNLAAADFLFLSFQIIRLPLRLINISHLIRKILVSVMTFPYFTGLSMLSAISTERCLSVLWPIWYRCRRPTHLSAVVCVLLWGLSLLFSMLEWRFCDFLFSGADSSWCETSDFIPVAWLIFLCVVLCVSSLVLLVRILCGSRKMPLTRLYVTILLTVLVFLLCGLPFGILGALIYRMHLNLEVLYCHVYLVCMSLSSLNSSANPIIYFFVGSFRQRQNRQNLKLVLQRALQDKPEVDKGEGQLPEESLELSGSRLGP

SMILES | IC50
N#Cc1ccc2c(C(=O)NCCc3nnc4ccccn34)nn(Cc3ccc(Cl)cc3)c2c1 [Compound 542] | < 100 nM
CC(C)(C#N)c1ccc(Cn2nc(C(=O)NCCc3nnc4ccccn34)c3ccccc32)cc1 [Compound 462] | 1000 to 2500 nM
Cc1ccc(Cn2cc(C(=O)NCCc3nc4c(s3)CCCC4)c3ccccc32)cc1 [Compound 165] | 100 to 500 nM
COc1ccc(Cn2cc(C(=O)NCCc3cccnc3)c3ccccc32)cc1 [Compound 176] | 100 to 500 nM
O=C(NCCn1cc(C2CC2)nn1)c1nn(Cc2ccc(Cl)cc2)c2ccccc12 [Compound 138] | < 100 nM
Cc1ccc(Cn2nc(C(=O)NCCc3cccnc3)c3c(F)cccc32)cc1 [Compound 70] | 501 to 1000 nM
Cc1cc(Cn2nc(C(=O)NCCc3nnc4n3CCCCC4)c3ccccc32)ccc1Cl [Compound 7] | < 100 nM
O=C(NCCc1nnc2ccccn12)c1nn(Cc2ccc3c(c2)CCCC3)c2ccccc12 [Compound 559] | < 100 nM
Cc1ccc(Cn2nc(C(=O)NCCc3cn(C)c4ccccc34)c3ccccc32)cc1 [Compound 94] | 1000 to 2500 nM
COc1ccccc1Cn1nc(C(=O)NCCc2nnc3ccccn23)c2ccccc21 [Compound 430] | > 2500 nM
Cc1cccc(Cn2nc(C(=O)NCCc3cccnc3)c3ccccc32)c1 [Compound 115] | 1000 to 2500 nM
CC(C)(C)c1ccc(Cn2nc(C(=O)NCCc3nnc4n3CCCCC4)c3ccccc32)cc1 [Compound 50] | 100 to 500 nM
O=C(NCCc1cccnc1)c1nn(Cc2ccccc2F)c2ccccc12 [Compound 125] | > 2500 nM
Cc1ccc(Cn2cc(C(=O)NCc3ccncc3)c3ccccc32)cc1 [Compound 231] | > 2500 nM
Cc1ccc(Cn2cc(C(=O)NCCc3nc(C)cs3)c3ccccc32)cc1 [Compound 159] | 100 to 500 nM
O=C(NCCc1nnc2n1CCCC2)c1nn(Cc2ccc(Cl)cc2)c2ccccc12 [Compound 25] | < 100 nM
O=C(NCCc1nnc2ccccn12)c1nn(Cc2ccc3ncccc3c2)c2ccccc12 [Compound 458] | 501 to 1000 nM
O=C(CNC(=O)c1nn(Cc2ccc(Cl)cc2)c2ccccc12)NCC(F)F [Compound 418] | > 2500 nM
O=C(NCCc1nnc2ccccn12)c1nn(Cc2ccc(C(F)(F)F)cc2Cl)c2ccccc12 [Compound 553] | < 100 nM
O=C(NCCc1cn2c(n1)SCC2)c1nn(Cc2ccc(Cl)cc2)c2ccccc12 [Compound 33] | 100 to 500 nM
O=C(NCCc1nnc2ccccn12)c1nn(Cc2ccc(-c3cnco3)cc2)c2ccccc12 [Compound 478] | 501 to 1000 nM
COc1ccc(CCNC(=O)c2nn(Cc3ccc(Cl)cc3)c3ccccc23)cn1 [Compound 364] | 100 to 500 nM
O=C(NCCc1cccnc1)c1nn(Cc2ccc(Cl)c(Cl)c2)c2ccccc12 [Compound 22] | < 100 nM
COc1cccc(Cn2cc(C(=O)NCCc3cccnc3)c3ccccc32)c1 [Compound 211] | 1000 to 2500 nM
O=C(NCCc1nnc2ccccn12)c1nn(Cc2csc(-c3ccccc3)n2)c2ccccc12 [Compound 512] | 100 to 500 nM

same assay, conditions: versus 20 μM deoxycholic acid agonist; HEK cells expressing human MRGPR X4; read-out: MRGPRX4 Antagonist Activity

SMILES | IC50
COc1ccc(Cn2nc(C(=O)NS(=O)(=O)c3cccc(C)c3)c3ccccc32)cc1 [Compound 293] | 1000 to 2500 nM
O=C(NS(=O)(=O)c1ccccc1OC(F)(F)F)c1nn(Cc2ccc(OC(F)F)cc2)c2ccccc12 [Compound 286] | 1000 to 2500 nM
O=C(CS(=O)(=O)c1cn(Cc2ccc(Cl)cc2)c2ccccc12)Nc1ccccn1 [Compound 241] | 100 to 500 nM
O=C(NCCc1nnc2ccccn12)c1nn(CCc2ccc(F)cc2F)c2ccccc12 [Compound 471] | > 2500 nM
O=C(CSc1cn(Cc2ccc(Br)cc2)c2ccccc12)N1CCCC1 [Compound 315, 2-(4(1H-indol-3-yl)thio)-1-(pyrrolidin-1-yl)ethan-1-one] | 1000 to 2500 nM
O=C(NS(=O)(=O)Cc1cccnc1)c1nn(Cc2ccc(Cl)cc2)c2ccccc12 [Compound 310] | > 2500 nM
Cc1cc(C)cc(S(=O)(=O)NC(=O)c2nn(Cc3ccc(OC(F)F)cc3)c3ccccc23)c1 [Compound 268] | 501 to 1000 nM
